Measurements as given in publication PMC9632963, “Preclinical characterization and phase I clinical trial of CT053PTSA targets MET, AXL, and VEGFR2 in patients with advanced solid tumors” (Frontiers in Immunology, 2022).
Where two headings read alike, the source gives them in different places.

How the values were obtained:
[1] = Phase I trial: clinical pharmacokinetics in plasma; format: in vivo, human; settings: for AUC(0-inf) / Cmax / AUC(0-t) / AUC / half-life / Tmax / Vd/F: human, plasma; for AUC(0-t): read-out: AUC0-168; for AUC: read-out: AUC0-τ; for Vd/F: read-out: Vz/F
Experimental: A clinical pharmacokinetic study of CT053PTSA was performed for both single doses and multiple doses. Blood samples were collected from each subject at prespecified times before and after single-dose administration (systemic blood samples: before treatment and 0.5, 1, 2, 3, 4, 5, 8, 12, 24, 36, 48, 72, 120 and 168 hours after treatment) and during multiple dosing (cycle 1 before treatment on Days 8, 15 and 22, as well as systemic blood samples on Day 28). […]
Statistical analysis of CT053-treated tumors versus vehicle-treated tumors or versus nontreated tumors was performed by repeated-measures ANOVA. The data from the tumor xenograft models were expressed as the means ± standard error of the mean (SEM) and were plotted as a function of time. Noncompartmental pharmacokinetic analysis was performed using Phoenix WinNonlin Version 6.2.1 (Certara Inc., NJ, USA). Demographics and laboratory results of all the subjects were summarized using descriptive statistics. The pharmacokinetic parameters Tmax and T1/2 were shown as the median (min, max) and mean ± SD, respectively. A two-sided P < 0.05 was considered to indicate statistical significance. Statistical analysis was performed by using GraphPad Prism 5.0 (GraphPad Prism, RRID : SCR_002798) and SPSS software version 19.0 (SPSS, RRID : SCR_002865).

[2] = Body weight of tumor-bearing mice in efficacy studies; format: in vivo; settings: all groups, 1-20 mg/kg
Experimental: (§1) Human tumor xenografts were established in female BALB/cA nude mice (5-6 weeks old) by administering the SNU-5 and MKN-45 cells, which have high MET expression levels. For efficacy studies in patient-derived tumor xenograft (PDX) mouse models, MET-overexpressing GA0046 and GA3121 tumors (obtained from Crownbio, CA, USA) were established by directly implanting surgical tissues into immunodeficient mice. […] The subcutaneous tumor size and body weight were measured twice weekly. The tumor volumes were determined by measuring two perpendicular diameters with calipers and calculated as (length × width^2)/2.

SNU-5 CDX xenografts = test: In vivo efficacy study, CDX model; set-up: species or system BALB/cA nude mice
Experimental: as §1

MKN-45 CDX xenografts = test: In vivo efficacy study, CDX model; set-up: species or system BALB/cA nude mice
Experimental: as §1

RON = RON (Homo sapiens, UniProt Q04912); test: Kinase inhibition assay (LANCE or HTRF); format: biochemical; settings: ATP at Km
RON, sequence (Q04912 25-1400): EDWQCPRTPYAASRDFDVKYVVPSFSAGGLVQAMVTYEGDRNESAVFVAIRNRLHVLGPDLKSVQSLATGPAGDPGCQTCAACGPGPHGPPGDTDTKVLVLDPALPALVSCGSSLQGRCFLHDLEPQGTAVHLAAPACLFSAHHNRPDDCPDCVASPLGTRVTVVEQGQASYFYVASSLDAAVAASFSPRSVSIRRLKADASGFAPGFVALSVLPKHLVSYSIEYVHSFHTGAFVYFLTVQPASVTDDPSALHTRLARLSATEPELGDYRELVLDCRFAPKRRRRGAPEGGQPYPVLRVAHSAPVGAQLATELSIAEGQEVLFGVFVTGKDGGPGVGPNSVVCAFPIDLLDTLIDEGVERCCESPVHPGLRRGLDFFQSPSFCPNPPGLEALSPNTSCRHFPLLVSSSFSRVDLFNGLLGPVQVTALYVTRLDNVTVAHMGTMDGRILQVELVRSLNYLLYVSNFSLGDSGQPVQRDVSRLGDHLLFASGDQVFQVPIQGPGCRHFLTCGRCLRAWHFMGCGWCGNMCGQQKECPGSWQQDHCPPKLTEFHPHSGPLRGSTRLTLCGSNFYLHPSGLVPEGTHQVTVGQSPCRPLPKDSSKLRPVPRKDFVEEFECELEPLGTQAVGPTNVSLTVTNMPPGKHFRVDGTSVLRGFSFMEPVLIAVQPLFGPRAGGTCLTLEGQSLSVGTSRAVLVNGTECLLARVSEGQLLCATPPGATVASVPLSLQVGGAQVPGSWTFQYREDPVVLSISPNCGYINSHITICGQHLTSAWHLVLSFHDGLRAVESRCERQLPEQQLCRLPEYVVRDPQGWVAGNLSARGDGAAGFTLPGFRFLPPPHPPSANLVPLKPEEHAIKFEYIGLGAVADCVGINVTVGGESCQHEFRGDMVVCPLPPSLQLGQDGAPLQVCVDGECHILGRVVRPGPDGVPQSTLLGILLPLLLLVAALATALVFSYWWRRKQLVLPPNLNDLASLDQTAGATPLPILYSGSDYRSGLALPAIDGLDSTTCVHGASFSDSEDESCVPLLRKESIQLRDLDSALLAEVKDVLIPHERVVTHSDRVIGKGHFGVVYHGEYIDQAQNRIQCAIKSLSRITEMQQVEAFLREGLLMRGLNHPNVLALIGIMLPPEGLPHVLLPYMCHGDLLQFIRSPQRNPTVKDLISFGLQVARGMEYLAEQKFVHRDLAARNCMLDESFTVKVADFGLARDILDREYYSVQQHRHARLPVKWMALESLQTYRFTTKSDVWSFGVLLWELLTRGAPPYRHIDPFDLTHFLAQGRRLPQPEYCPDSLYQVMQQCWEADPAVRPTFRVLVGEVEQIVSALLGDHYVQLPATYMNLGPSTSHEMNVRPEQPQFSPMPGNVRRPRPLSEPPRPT
Experimental: The IC50 values were determined by measuring phosphorylation of peptide substrate poly at ATP concentrations at the Km.

SNU-601 = test: Cell proliferation assay (CellTiter-Glo, 72 hours); format: cell-based; settings: Homo sapiens, read-out: IC50 anti-proliferative
Experimental: These cell lines were obtained from American Type Culture Collection (ATCC), Japanese Collection of Research Bioresources (JCRB), Shanghai Institutes of Biological Sciences, CAS (SIBS), Korean Cell Line Bank (KCLB) or National Institutes of Health (NIH). […] Cell viability was measured after 72 hours using a CellTiter-Glo Luminescent Cell Viability Assay Kit (Promega, WI, USA) according to the manufacturer’s instructions.

[3] = oral, 15 mg, Multiple doses day 28, 15 mg, n=1
[4] = oral, 15 mg, Single dose day 1, 15 mg, n=1
[5] = oral, 30 mg, Multiple doses day 28, 30 mg, n=1
[6] = oral, 30 mg, Single dose day 1, 30 mg, n=1
[7] = oral, 60 mg, Multiple doses day 28, 60 mg, n=3, Geometric Mean (CV%)
[8] = oral, 60 mg, Single dose day 1, 60 mg, n=5, Geometric Mean (CV%)
[9] = oral, 100 mg, Multiple doses day 28, 100 mg, n=5, Geometric Mean (CV%)
[10] = oral, 100 mg, Single dose day 1, 100 mg, n=7, Geometric Mean (CV%)
[11] = oral, 150 mg, Multiple doses day 28, 150 mg, n=1
[12] = oral, 150 mg, Single dose day 1, 150 mg, n=4, Geometric Mean (CV%)
[13] = 3 mg/kg once per day oral gavage

Cc1c(C(=O)Nc2ccc(Oc3ccnc4cc(OCC(C)(C)O)ccc34)c(F)c2)c(=O)n(-c2ccccc2)n1C [CT053PTSA]
Cl/F ([1]; Multiple doses day 28, 15 mg, n=1): 1580 mL/h | Cl/F ([1]; Multiple doses day 28, 30 mg, n=1): 1090 mL/h | Cl/F ([1]; Multiple doses day 28, 150 mg, n=1): 4470 mL/h | Cl/F ([1]; Single dose day 1, 15 mg, n=1): 2420 mL/h | Cl/F ([1]; Single dose day 1, 30 mg, n=1): 1000 mL/h | steady state reached ([1]; daily dosing): ≤ 8 days | AUC(0-inf) [1, 3]: 24000 ng·h/mL | Cmax [1, 3]: 598 ng/mL | AUC(0-t) [1, 3]: 23700 ng·h/mL | AUC [1, 3]: 9510 ng·h/mL | half-life ([1]; oral, 15 mg, Multiple doses day 28, 15 mg, n=1, read-out: T1/2 (converted)): 27.9 h | Tmax ([1]; oral, 15 mg, Multiple doses day 28, 15 mg, n=1, read-out: Tmax): 2 h | Vd/F [1, 3]: 63.5 L | AUC(0-inf) [1, 4]: 6190 ng·h/mL | Cmax [1, 4]: 345 ng/mL | AUC(0-t) [1, 4]: 6120 ng·h/mL | AUC [1, 4]: 3760 ng·h/mL | half-life ([1]; oral, 15 mg, Single dose day 1, 15 mg, n=1, read-out: T1/2 (converted)): 31.4 h | Tmax ([1]; oral, 15 mg, Single dose day 1, 15 mg, n=1, read-out: Tmax): 3 h | Vd/F [1, 4]: 110 L | AUC(0-inf) [1, 5]: 84100 ng·h/mL | Cmax [1, 5]: 1790 ng/mL | AUC(0-t) [1, 5]: 81200 ng·h/mL | AUC [1, 5]: 27600 ng·h/mL | half-life ([1]; oral, 30 mg, Multiple doses day 28, 30 mg, n=1, read-out: T1/2 (converted)): 38.4 h | Tmax ([1]; oral, 30 mg, Multiple doses day 28, 30 mg, n=1, read-out: Tmax): 2 h | Vd/F [1, 5]: 60.2 L | AUC(0-inf) [1, 6]: 29900 ng·h/mL | Cmax [1, 6]: 796 ng/mL | AUC(0-t) [1, 6]: 29100 ng·h/mL | AUC [1, 6]: 12300 ng·h/mL | half-life ([1]; oral, 30 mg, Single dose day 1, 30 mg, n=1, read-out: T1/2 (converted)): 31.9 h | Tmax ([1]; oral, 30 mg, Single dose day 1, 30 mg, n=1, read-out: Tmax): 3 h | Vd/F [1, 6]: 46.2 L | AUC(0-inf) [1, 7]: 91100 ng·h/mL | Cmax [1, 7]: 2720 ng/mL | AUC(0-t) [1, 7]: 89700 ng·h/mL | AUC [1, 7]: 37000 ng·h/mL | Vd/F [1, 7]: 60.5 L | half-life ([1]; oral, 60 mg, Multiple doses day 28, 60 mg, n=3, Mean ± SD, read-out: T1/2 (converted)): 26.1 ± 4.5 h | Tmax ([1]; oral, 60 mg, Multiple doses day 28, 60 mg, n=3, Median (Min, Max), read-out: Tmax): 2 h | AUC(0-inf) [1, 8]: 29200 ng·h/mL | Cmax [1, 8]: 1340 ng/mL | AUC(0-t) [1, 8]: 28700 ng·h/mL | AUC [1, 8]: 13700 ng·h/mL | Vd/F [1, 8]: 71.8 L | half-life ([1]; oral, 60 mg, Single dose day 1, 60 mg, n=5, Mean ± SD, read-out: T1/2 (converted)): 24.7 ± 5.7 h | Tmax ([1]; oral, 60 mg, Single dose day 1, 60 mg, n=5, Median (Min, Max), read-out: Tmax): 2 h | AUC(0-inf) [1, 9]: 156000 ng·h/mL | Cmax [1, 9]: 4330 ng/mL | AUC(0-t) [1, 9]: 146000 ng·h/mL | AUC [1, 9]: 57300 ng·h/mL | Vd/F [1, 9]: 90.9 L | half-life ([1]; oral, 100 mg, Multiple doses day 28, 100 mg, n=5, Mean ± SD, read-out: T1/2 (converted)): 38.2 ± 14.3 h | Tmax ([1]; oral, 100 mg, Multiple doses day 28, 100 mg, n=5, Median (Min, Max), read-out: Tmax): 2 h | AUC(0-inf) [1, 10]: 57700 ng·h/mL | Cmax [1, 10]: 1890 ng/mL | AUC(0-t) [1, 10]: 56000 ng·h/mL | AUC [1, 10]: 24400 ng·h/mL | Vd/F [1, 10]: 79.8 L | half-life ([1]; oral, 100 mg, Single dose day 1, 100 mg, n=7, Mean ± SD, read-out: T1/2 (converted)): 32.8 ± 8.5 h | Tmax ([1]; oral, 100 mg, Single dose day 1, 100 mg, n=7, Median (Min, Max), read-out: Tmax): 2 h | AUC(0-inf) [1, 11]: 50600 ng·h/mL | Cmax [1, 11]: 2930 ng/mL | AUC(0-t) [1, 11]: 50500 ng·h/mL | AUC [1, 11]: 33600 ng·h/mL | half-life ([1]; oral, 150 mg, Multiple doses day 28, 150 mg, n=1, read-out: T1/2 (converted)): 13.8 h | Tmax ([1]; oral, 150 mg, Multiple doses day 28, 150 mg, n=1, read-out: Tmax): 2 h | Vd/F [1, 11]: 88.7 L | AUC(0-inf) [1, 12]: 68500 ng·h/mL | Cmax [1, 12]: 2970 ng/mL | AUC(0-t) [1, 12]: 65500 ng·h/mL | AUC [1, 12]: 30500 ng·h/mL | Vd/F [1, 12]: 99.8 L | half-life ([1]; oral, 150 mg, Single dose day 1, 150 mg, n=4, Mean ± SD, read-out: T1/2 (converted)): 33.9 ± 13.7 h | Tmax ([1]; oral, 150 mg, Single dose day 1, 150 mg, n=4, Median (Min, Max), read-out: Tmax): 2.5 h | Tmax ([1]; po, multiple doses, oral, read-out: median Tmax): 2 h | half-life ([1]; po, multiple oral doses, read-out: mean half-life, range over cohorts): 13.8 to 38.4 h | Tmax ([1]; po, single dose, oral, read-out: median Tmax): 2 to 3 h | half-life ([1]; po, single oral dose, read-out: mean half-life, range over cohorts): 24.7 to 33.9 h

Cc1c(C(=O)Nc2ccc(Oc3ccnc4cc(OCC(C)(C)O)ccc34)c(F)c2)c(=O)n(-c2ccccc2)n1C [CT053]
change in body weight [2]: no significant change in body weight | TGI (SNU-5 CDX xenografts; 1 mg/kg once per day oral gavage): 32% | TGI (SNU-5 CDX xenografts; [13]): 87% | TGI (MKN-45 CDX xenografts; [13]): 31% | TGI (MKN-45 CDX xenografts; 10 mg/kg once per day oral gavage): 85% | TGI (MKN-45 CDX xenografts; 20 mg/kg once per day oral gavage): 97% | IC50 (RON): 160 nM | IC50 (SNU-601): > 10000 nM | PK profile versus dose ([1]; multiple doses, 60-100 mg): linear PK profile | PK profile versus dose ([1]; single oral dose, 15 to 150 mg): general linear PK profile
